Paper PMC3644560 (Journal of the American Chemical Society, 2013)

What was measured:
E. coli IspH [1] = target: T1, E. coli IspH (Escherichia coli, UniProt P62623); format: biochemical
E. coli IspH [2] = target: T1, E. coli IspH; test: IspH inhibition assay using [3-14C]HMBPP and the NADPH/FpR1/FldA reducing system; format: biochemical; conditions: steady-state studies with [3-14C]HMBPP and NADPH/FpR1/FldA
E. coli IspH [3] = target: T1, E. coli IspH; test: Spectrophotometric IspH assay; format: biochemical; conditions: for substrate for IspH (NADPH consumption at 340 nm): 200 μM compound, IspH 0.5 μM, anaerobic, pH 8
Aquifex aeolicus IspH = conditions: Aquifex aeolicus enzyme, DT-reduced MV ref 26; cited from earlier work
[4] = fit of kapp vs [AMBPP] to Eqn 2, mechanism A, pH 8, 37 °C

T1 sequence (P62623 whole entry): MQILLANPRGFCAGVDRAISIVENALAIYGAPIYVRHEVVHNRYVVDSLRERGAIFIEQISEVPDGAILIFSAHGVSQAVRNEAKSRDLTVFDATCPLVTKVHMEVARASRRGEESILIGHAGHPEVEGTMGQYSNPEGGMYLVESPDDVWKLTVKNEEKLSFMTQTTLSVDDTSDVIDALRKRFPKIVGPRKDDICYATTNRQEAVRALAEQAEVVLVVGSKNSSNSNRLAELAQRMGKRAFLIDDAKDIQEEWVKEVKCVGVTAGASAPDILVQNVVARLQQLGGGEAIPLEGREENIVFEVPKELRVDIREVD

| Structure (SMILES) | IC50 (E. coli IspH [1]) | mode of inhibition (E. coli IspH [2]) | Ki (E. coli IspH [3]) | substrate for IspH (NADPH consumption at 340 nm) (E. coli IspH [3]) | effect of pH on inhibition constant and rate of binding to IspH (E. coli IspH [3]; Figures S5 and S6) | k3 (rate constant of formation of the EI complex) (E. coli IspH [3]; [4]) | k4 (rate constant of dissociation of the EI complex) (E. coli IspH [3]; [4]) | IC50 (Aquifex aeolicus IspH) |
| --- | --- | --- | --- | --- | --- | --- | --- | --- |
| C/C(=C\COP(=O)(O)OP(=O)(O)O)CN.N.N [AMBPP, (E)-4-Amino-3-methylbut-2-enyl 1-diphosphate bis ammonium salt] | 150 ± 20 nM | competitive inhibition was confirmed | 54 ± 19 nM | not substrates for IspH | decrease as pH increases | 41000 M⁻¹ s⁻¹ | 0.0022 s⁻¹ | – |
| C#CCCOP(=O)(O)OP(=O)(O)O [3-butynyl diphosphate] | – | – | – | – | – | – | – | 450 nM |
| C/C(=C\COP(=O)(O)OP(=O)(O)O)CS.N.N [TMBPP, (E)-4-Mercapto-3-methyl-but-2-en-1-yl diphosphate bis ammonium salt] | 210 ± 10 nM | competitive inhibitor | – | not substrates for IspH | – | – | – | – |
